IC50 data for 24 compounds are collected here from US12291516B2, “Substituted 1-amino-1H-imidazole-5-carboxamide as Bruton's tyrosine kinase inhibitors” (Henan Zhiwei Biomedicine Co., Ltd., priority 2019, dated 2025).

One assay deals with T1, BTK (Homo sapiens (Human), UniProt Q06187). Description: BTK inhibition assay by Reaction Biology Corporation (33P-ATP, filter-binding). It counts as biochemical. The settings on record: footnote a: from Reaction Biology Corporation. As for the experimental part: (§1) BTK inhibition Assay and selectivity Assay The assay was conducted either a by a third party (Reaction Biology Corporation, PA, USA) or in house.
T1 sequence (Q06187 whole entry): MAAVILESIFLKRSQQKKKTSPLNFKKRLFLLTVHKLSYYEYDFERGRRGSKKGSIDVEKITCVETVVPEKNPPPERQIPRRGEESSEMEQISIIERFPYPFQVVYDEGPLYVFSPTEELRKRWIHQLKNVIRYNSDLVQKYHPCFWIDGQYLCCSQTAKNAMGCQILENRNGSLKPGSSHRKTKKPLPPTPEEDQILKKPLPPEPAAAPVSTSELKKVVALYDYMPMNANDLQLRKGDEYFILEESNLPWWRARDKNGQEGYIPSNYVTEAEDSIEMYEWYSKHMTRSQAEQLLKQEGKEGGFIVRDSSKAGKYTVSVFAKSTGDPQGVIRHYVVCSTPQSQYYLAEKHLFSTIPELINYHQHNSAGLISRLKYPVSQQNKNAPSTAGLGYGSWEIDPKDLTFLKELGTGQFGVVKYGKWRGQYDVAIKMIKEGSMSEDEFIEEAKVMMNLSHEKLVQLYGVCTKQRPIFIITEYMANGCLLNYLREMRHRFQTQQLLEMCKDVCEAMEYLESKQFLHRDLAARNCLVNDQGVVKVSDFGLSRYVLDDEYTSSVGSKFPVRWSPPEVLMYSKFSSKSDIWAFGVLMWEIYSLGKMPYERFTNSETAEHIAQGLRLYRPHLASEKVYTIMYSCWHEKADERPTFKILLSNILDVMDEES
a) Reagent and Procedure by Reaction Biology Corporation:
Base Reaction buffer; 20 mM Hepes (pH 7.5), 10 mM MgCl2, 1 mM EGTA, 0.02%. Brij35, 0.02 mg/ml BSA, 0.1 mM Na3VO4, 2 mM DTT, 1% DMSO. Required cofactors were added individually to each kinase reaction. Compound handling: testing compounds were dissolved in 100% DMSO to specific concentration. The serial dilution was conducted by Integra Viaflo Assist in DMSO.
The substrate was prepared in freshly prepared reaction buffer of above and required cofactors were added to the substrate solution. The kinase was delivered to the substrate solution and the mixture was gently mixed. Testing compounds in 100% DMSO was added to the kinase reaction mixture by Acoustic technology (Echo550; nanoliter range) and the new mixture was incubated for 20 min at room temperature. Then ^33P-ATP (Specific activity 10 μCi/μl) was added to the reaction mixture to initiate the reaction and the mixture was incubated for 2 hours at room temperature. The radioactivity was detected by filter-binding method and the kinase activity data was expressed as the percent of remaining kinase activity in test sample compared to vehicle (dimethyl sulfoxide) reaction. IC50 values and curve fits were obtained using Prism (GraphPad Software). The result is outlined in Table-I
As a reminder, the IC50 is the midpoint of a concentration-inhibition curve. Low readings indicate higher potency, high ones lower potency. Regarding `C#CC(=O)N1CCC[C@H]1c1nc(-c2ccc(C(=O)Nc3ccccn3)cc2)c(C(N)=O)n1N` [Example 7, (S)-1-amino-2-(1-propioloylpyrrolidin-2-yl)-4-(4-(pyridin-2-ylcarbamoyl)phenyl)-1H-imidazole-5-carboxamide], the IC50 came out at 0.085 µM.

For the compound `N#CN1CCC[C@H]1c1nc(-c2ccc(C(=O)Nc3ccccn3)cc2)c(C(N)=O)n1N` [Example 9, (S)-1-amino-2-(1-cyanopyrrolidin-2-yl)-4-(4-(pyridin-2-ylcarbamoyl)phenyl)-1H-imidazole-5-carboxamide], the IC50 is 5.92 µM.

A further assay concerns the target T1, BTK. Description: In house ELISA kinase inhibition assay, BTK. Format: biochemical. The settings on record: footnote b: from in house procedure (ELISA). The protocol: as §1
b) In House Procedure for BTK, BMX, EGFR and ITK:
Kinase inhibitory activities of compounds were evaluated using the Enzyme-linked immunosorbent assay (ELISA). The kinase enzyme of BTK, BMX, EGFR and ITK were purchased from Carna Bioscience (Kobe, Japan). A total of 10 ng/mL antiphosphotyrosine (PY713) antibody (abcam, Cambridge Science Park, UK) was precoated in 96-well ELISA plates. The kinase enzymes in each reaction well were set to BTK (101.25 ng/mL), BMX (90 ng/mL), EGFR (90 ng/mL) or ITK (120 ng/mL) and incubated with indicated drugs in 1× reaction buffer (50 mmol/L HEPES pH 7.4, 20 mmol/L MgCl2, 0.1 mmol/L MnCl2, 1 mmol/L DTT) containing 20 μmol/L (the final concentration of substrate in ITK reaction was 30 μmol/L) substrate (NH2-[…]-biotin) at 25° C. for 1 h. Then, a total of 3 μmol/L ATP was added and the reaction was continued for 2 h. The products of reaction were transferred into 96-well ELISA plates containing antibody and incubated at 25° C. for 30 min. After incubation, the wells were washed with PBS and then incubated with horseradish peroxidase (HRP)-conjugated streptavidin. The wells were visualized using 3,3′,5,5′-tetramethylbenzidine (TMB), and chromogenic reaction was ended with 2 mol/L H2SO4, the absorbance was read with a multimode plate reader (PerkinElmer, USA) at 450 nm. IC50 values and curve fits were obtained using Prism (GraphPad Software). (Table I-IV)
In general terms: An ELISA detects its analyte on a solid surface through an enzyme-linked reagent.
For `C=C(F)C(=O)N1CCCC[C@H]1c1nc(-c2ccc(C(=O)Nc3cc(OC)ccn3)cc2)c(C(N)=O)n1N` [Example 70, (S)-1-amino-2-(1-(2-fluoroacryloyl)piperidin-2-yl)-4-(4-((4-methoxy-pyridin-2-yl)carbamoyl)phenyl)-1H-imidazole-5-carboxamide], the midpoint of inhibition, the IC50, lay at 2.89 µM.

`CC#CC(=O)N1CCCC[C@H]1c1nc(-c2ccc(C(=O)Nc3cc(CC)ccn3)cc2)c(C(N)=O)n1N` [Example 77, (S)-1-amino-2-(1-(but-2-ynoyl)piperidin-2-yl)-4-(4-((4-ethylpyridin-2-yl)carbamoyl)phenyl)-1H-imidazole-5-carboxamide] came in with an IC50 of 0.0179 µM.

As for `CCc1ccnc(NC(=O)c2ccc(-c3nc([C@@H]4CCCCN4C(=O)/C(C#N)=C/C4CC4)n(N)c3C(N)=O)cc2)c1` [Example 78, (S,E)-1-amino-2-(1-(2-cyano-3-cyclopropylacryloyl)piperidin-2-yl)-4-(4-((4-ethylpyridin-2-yl)carbamoyl)phenyl)-1H-imidazole-5-carboxamide], the IC50 was found to be 6.57 µM.

In the case of `CCc1ccnc(NC(=O)c2ccc(-c3nc([C@@H]4CCCCN4C(=O)/C(C#N)=C/C(C)C)n(N)c3C(N)=O)cc2)c1` [Example 79, (S,E)-1-amino-2-(1-(2-cyano-4-methylpent-2-enoyl)piperidin-2-yl)-4-(4-((4-ethylpyridin-2-yl)carbamoyl)phenyl)-1H-imidazole-5-carboxamide], the IC50 was 1.72 µM.

`CC#CC(=O)N1CCCC[C@H]1c1nc(-c2ccc(C(=O)Nc3cc(C#N)ccn3)cc2)c(C(N)=O)n1N` [Example 82, (S)-1-amino-2-(1-(but-2-ynoyl)piperidin-2-yl)-4-(4-((4-cyanopyridin-2-yl)carbamoyl)phenyl)-1H-imidazole-5-carboxamide] returned an IC50 of 0.0456 µM.

For the compound `C=CC(=O)N1CCCCCC1c1nc(-c2ccc(C(=O)Nc3cc(CC)ccn3)cc2)c(C(N)=O)n1N` (stereo not drawn) [Example 94, 2-(1-acryloylazepan-2-yl)-1-amino-4-(4-((4-ethylpyridin-2-yl)carbamoyl)phenyl)-1H-imidazole-5-carboxamide], the midpoint of inhibition, the IC50, lay at 0.226 µM.

Compound `C=CC(=O)N1CC2(CC(c3nc(-c4ccc(C(=O)Nc5cc(CC)ccn5)cc4)c(C(N)=O)n3N)C2)C1` [Example 95, 2-(2-acryloyl-2-azaspiro[3.3]heptan-6-yl)-1-amino-4-(4-((4-ethylpyridin-2-yl)carbamoyl)phenyl)-1H-imidazole-5-carboxamide] showed an IC50 of 0.0856 µM.

In turn, `C#CC(=O)N1CCCC[C@H]1c1nc(-c2ccc(C(=O)Nc3cc(C)ccn3)cc2)c(C(N)=O)n1N` [Example 96, (S)-1-amino-4-(4-((4-methylpyridin-2-yl)carbamoyl)phenyl)-2-(1-propioloylpiperidin-2-yl)-1H-imidazole-5-carboxamide] returned an IC50 of 0.0192 µM.

Consider `C#CC(=O)N1CCCC[C@H]1c1nc(-c2ccc(C(=O)Nc3cc(OC)ccn3)cc2)c(C(N)=O)n1N` [Example 97, (S)-1-amino-4-(4-((4-methoxypyridin-2-yl)carbamoyl)phenyl)-2-(1-propioloylpiperidin-2-yl)-1H-imidazole-5-carboxamide], for which the IC50 turned out to be 0.00922 µM.

Take `C#CC(=O)N1CCCC[C@H]1c1nc(-c2ccc(C(=O)Nc3cc(Cl)ccn3)cc2)c(C(N)=O)n1N` [Example 99, (S)-1-amino-4-(4-((4-chloropyridin-2-yl)carbamoyl)phenyl)-2-(1-propioloylpiperidin-2-yl)-1H-imidazole-5-carboxamide]: half-maximal inhibition (IC50) was put at 0.00278 µM.

As to `C#CC(=O)N1CCCC[C@H]1c1nc(-c2ccc(C(=O)Nc3cc(CC)ccn3)cc2)c(C(N)=O)n1N` [Example 100, (S)-1-amino-4-(4-((4-ethylpyridin-2-yl)carbamoyl)phenyl)-2-(1-propioloylpiperidin-2-yl)-1H-imidazole-5-carboxamide], half-maximal inhibition (IC50) was put at 0.00999 µM.

`C=CC(=O)N1CCCC[C@H]1c1nc(-c2ccc(C(=O)Nc3cccnn3)cc2)c(C(N)=O)n1N` [Example 101, (S)-2-(1-acryloylpiperidin-2-yl)-1-amino-4-(4-(pyridazin-3-ylcarbamoyl)phenyl)-1H-imidazole-5-carboxamide] gave an IC50 of 0.211 µM.

The compound `CC#CC(=O)N1CCCC[C@H]1c1nc(-c2ccc(C(=O)Nc3cccnn3)cc2)c(C(N)=O)n1N` [Example 102, (S)-1-amino-2-(1-(but-2-ynoyl)piperidin-2-yl)-4-(4-(pyridazin-3-ylcarbamoyl)phenyl)-1H-imidazole-5-carboxamide] came in with an IC50 of 2.28 µM.

As for `C=CC(=O)N1CCC(Cc2nc(-c3ccc(C(=O)Nc4ccccn4)cc3)c(C(N)=O)n2N)CC1` [Example 103, 2-((1-acryloylpiperidin-4-yl)methyl)-1-amino-4-(4-(pyridin-2-ylcarbamoyl)phenyl)-1H-imidazole-5-carboxamide], 0.176 µM corresponded to half-maximal inhibition (IC50).

For `CC#CC(=O)N1CCC(Cc2nc(-c3ccc(C(=O)Nc4ccccn4)cc3)c(C(N)=O)n2N)CC1` [Example 104, 1-amino-2-((1-(but-2-ynoyl)piperidin-4-yl)methyl)-4-(4-(pyridin-2-ylcarbamoyl)phenyl)-1H-imidazole-5-carboxamide], it took 0.459 µM to reach half-maximal inhibition (IC50).

Regarding `C=CC(=O)N1CCCC[C@H]1c1nc(-c2ccc(C(=O)Nc3cc(F)ccn3)cc2)c(C(N)=O)n1N` [Example 106, (S)-2-(1-acryloylpiperidin-2-yl)-1-amino-4-(4-((4-fluoropyridin-2-yl)carbamoyl)phenyl)-1H-imidazole-5-carboxamide], inhibition was half-maximal at 0.015 µM (IC50).

`C=CC(=O)N1CCCC[C@H]1c1nc(-c2ccc(C(=O)Nc3cc(C)c(F)cn3)cc2)c(C(N)=O)n1N` [Example 107, (S)-2-(1-acryloylpiperidin-2-yl)-1-amino-4-(4-((5-fluoro-4-methylpyridin-2-yl)carbamoyl)phenyl)-1H-imidazole-5-carboxamide] registered an IC50 of 0.0445 µM.

In turn, `CC#CC(=O)N1CCCC[C@H]1c1nc(-c2ccc(C(=O)Nc3cc(C)c(F)cn3)cc2)c(C(N)=O)n1N` [Example 108, (S)-1-amino-2-(1-(but-2-ynoyl)piperidin-2-yl)-4-(4-((5-fluoro-4-methylpyridin-2-yl)carbamoyl)phenyl)-1H-imidazole-5-carboxamide] showed an IC50 of 0.121 µM.

`C=CC(=O)N1CCCC[C@H]1c1nc(-c2ccc(C(=O)Nc3cc(-c4ccc(Cl)cc4)ccn3)cc2)c(C(N)=O)n1N` [Example 109, (S)-2-(1-acryloylpiperidin-2-yl)-1-amino-4-(4-((4-(4-chlorophenyl)pyridin-2-yl)carbamoyl)phenyl)-1H-imidazole-5-carboxamide] showed an IC50 of 0.0019 µM.

Compound `CC#CC(=O)N1CCCC[C@H]1c1nc(-c2ccc(C(=O)Nc3cc(-c4ccc(Cl)cc4)ccn3)cc2)c(C(N)=O)n1N` [Example 110, (S)-1-amino-2-(1-(but-2-ynoyl)piperidin-2-yl)-4-(4-((4-(4-chlorophenyl)pyridin-2-yl)carbamoyl)phenyl)-1H-imidazole-5-carboxamide] displayed an IC50 of 0.0148 µM.

In turn, `C=CC(=O)N1CCCC[C@H]1c1nc(-c2ccc(C(=O)Nc3cc(-c4ccc(C#N)cc4)ccn3)cc2)c(C(N)=O)n1N` [Example 111, (S)-2-(1-acryloylpiperidin-2-yl)-1-amino-4-(4-((4-(4-cyanophenyl)pyridin-2-yl)carbamoyl)phenyl)-1H-imidazole-5-carboxamide] displayed an IC50 of 0.0106 µM.

Compound `CC#CC(=O)N1CCCC[C@H]1c1nc(-c2ccc(C(=O)Nc3cc(-c4ccc(C#N)cc4)ccn3)cc2)c(C(N)=O)n1N` [Example 112, (S)-1-amino-2-(1-(but-2-ynoyl)piperidin-2-yl)-4-(4-((4-(4-cyanophenyl)pyridin-2-yl)carbamoyl)phenyl)-1H-imidazole-5-carboxamide] yielded an IC50 of 0.0228 µM.
